In assay [1] the target is T1, Fructose-bisphosphate aldolase (Mycobacterium tuberculosis, UniProt P9WQA3).
T1 sequence (P9WQA3 whole entry): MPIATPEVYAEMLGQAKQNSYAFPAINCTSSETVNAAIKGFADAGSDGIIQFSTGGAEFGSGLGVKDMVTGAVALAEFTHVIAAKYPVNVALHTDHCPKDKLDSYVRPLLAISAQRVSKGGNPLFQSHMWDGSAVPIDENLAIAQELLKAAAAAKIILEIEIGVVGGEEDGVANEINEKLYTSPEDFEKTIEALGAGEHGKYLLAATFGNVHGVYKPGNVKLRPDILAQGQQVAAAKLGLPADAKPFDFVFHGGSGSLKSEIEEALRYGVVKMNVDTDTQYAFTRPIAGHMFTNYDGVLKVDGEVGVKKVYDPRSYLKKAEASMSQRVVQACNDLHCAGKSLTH
As to the kind of experiment: Fluorescence-based biochemical high throughput dose response assay for inhibitors of the fructose-bisphosphate aldolase (FBA) of M. tuberculosis. The format is functional.

Assay [2] can be described thus: Artemis endonuclease inhibitor potency, dose response, biochemical, fluorescence intensity (AID 720701).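 Note: Artemis endonuclease enzyme.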 The format is functional.
The test system of assay [3] is Streptococcus sp. 'group A'. As to the kind of experiment: growth inhibition of control SK(-) GAS strain, dose response, counter-screen for streptokinase expression inhibitor project, luminescence, kanamycin, BacTiterGlo, confirmation (AID 1900). Format: functional, organism-based.
The test system of another assay is Streptococcus. As to the kind of experiment: Group A Streptococcus viability loss, dose response, counter-screen for streptokinase expression inhibitor project, luminescence, BacTiterGlo (AID 1915).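 Note: potency for reduction of bacterial viability or growth.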 The format is functional, organism-based.
Assay [4] in a line: P. falciparum Dd2 growth inhibitors, dose response, SYBR Green, cherry-picked samples (AID 1159567). The format is functional, cell-based.
The nature of assay [5]: HepG2 cell cytotoxicity, dose response, cytotoxicity control, cherry-picked samples (AID 1159577). Format: functional, cell-based.
Assay [6] addresses T2, RNA-editing ligase 1, mitochondrial (Trypanosoma brucei brucei, UniProt P86926).
T2 sequence (P86926 whole entry): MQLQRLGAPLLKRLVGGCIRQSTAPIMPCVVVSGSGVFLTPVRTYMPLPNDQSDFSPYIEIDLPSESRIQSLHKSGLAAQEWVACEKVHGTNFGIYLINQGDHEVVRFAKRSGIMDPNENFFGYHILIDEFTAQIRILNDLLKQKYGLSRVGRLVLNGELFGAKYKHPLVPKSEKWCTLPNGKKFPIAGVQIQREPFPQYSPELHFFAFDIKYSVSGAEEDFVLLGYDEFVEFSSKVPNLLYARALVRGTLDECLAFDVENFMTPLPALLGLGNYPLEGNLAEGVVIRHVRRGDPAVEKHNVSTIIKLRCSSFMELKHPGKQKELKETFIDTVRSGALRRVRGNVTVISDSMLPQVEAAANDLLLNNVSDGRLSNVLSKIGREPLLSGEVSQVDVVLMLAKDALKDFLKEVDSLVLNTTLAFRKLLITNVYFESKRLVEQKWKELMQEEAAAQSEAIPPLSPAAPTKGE
As to the kind of experiment: TbREL1 ligase inhibitors, dose response, biochemical, fluorescence, Trypanosoma brucei (AID 1117295). Format: functional.

A short description of assay [7]: HeLa 2N DNA content increase, dose response, cell-based, IC50 (AID 1117349). Format: functional.
Assay [8] is described as follows: Dose-response inhibition of insulin secretion in a rat insulinoma line at 5 mM glucose (AID 1117331). The format is functional, cell-based. As to conditions: INS-1E.
The nature of the next assay: cells. Format: functional, cell-based. The settings on record: INS-1E.
Assay [9] is described as follows: HeLa 4N DNA content increase, dose response, cell-based, IC50 (AID 1117351). Format: functional.
Another assay addresses T3, Protein Tat (Human immunodeficiency virus type 1 group M subtype B (isolate HXB2)(HIV-1), UniProt P04608).
T3 sequence (P04608 whole entry): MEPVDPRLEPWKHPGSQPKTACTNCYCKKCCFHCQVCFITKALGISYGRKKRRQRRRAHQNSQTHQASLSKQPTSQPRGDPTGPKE
Format: functional.

A further assay addresses Paired box protein Pax-8 (Homo sapiens, UniProt Q06710). As to the kind of experiment: inhibitors of PAX8-driven TPO luciferase reporter, dose response, RMG-I cells, cherry-pick (AID 687027).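 Note: luciferase reporter driven by Pax8 target thyroperoxidase promoter measured by SteadyGlo luminescence.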 The format is functional, cell-based.
The nature of assay [10]: cytotoxicity in OVCAR8 ovarian cancer cells, dose response, PAX8 project, cell-based, plate reader, dry powder samples (AID 743197). The format is functional. As to conditions: OVCAR-8.
Assay [11] in a line: A2780 ovarian cancer cell cytotoxicity, dose response, cytotoxicity control, plate reader, dry powder samples (AID 743046). Format: functional, cell-based.
A short description of assay [12]: NIH:OVCAR-3 ovarian cancer cell cytotoxicity, dose response, PAX8 inhibitor project, plate reader, dry powder samples (AID 743044). Format: functional, cell-based.
Another assay has as its target T4, fMet-Leu-Phe receptor (Homo sapiens, UniProt P21462).
T4 sequence (P21462 whole entry): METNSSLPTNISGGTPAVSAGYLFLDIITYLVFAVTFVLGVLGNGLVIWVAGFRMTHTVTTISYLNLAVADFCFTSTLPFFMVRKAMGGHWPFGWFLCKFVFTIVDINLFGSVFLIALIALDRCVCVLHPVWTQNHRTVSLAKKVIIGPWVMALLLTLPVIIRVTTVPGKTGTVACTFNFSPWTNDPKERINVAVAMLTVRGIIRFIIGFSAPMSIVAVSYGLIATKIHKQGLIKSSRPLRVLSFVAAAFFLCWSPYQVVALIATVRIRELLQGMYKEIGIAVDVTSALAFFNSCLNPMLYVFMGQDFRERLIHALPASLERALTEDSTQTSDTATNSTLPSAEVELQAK
Put plainly: FPR ligands, dose response (AID 519). Format: functional.

A further assay addresses Cytochrome P450 2C19 (Homo sapiens, UniProt P33261). As to the kind of experiment: Cytochrome panel assay with activity outcomes. Panel member name: p450-cyp2c19 Compounds with AC50 equal or less than 10 uM are considered active. Format: functional. The settings on record: read-out: AC50.

Each structure is given as a SMILES string. Structures can show the parent of a compound that is named as a salt. Calls of active or inactive are those of the source.

Sequence of Cytochrome P450 2C19 (P33261 whole entry): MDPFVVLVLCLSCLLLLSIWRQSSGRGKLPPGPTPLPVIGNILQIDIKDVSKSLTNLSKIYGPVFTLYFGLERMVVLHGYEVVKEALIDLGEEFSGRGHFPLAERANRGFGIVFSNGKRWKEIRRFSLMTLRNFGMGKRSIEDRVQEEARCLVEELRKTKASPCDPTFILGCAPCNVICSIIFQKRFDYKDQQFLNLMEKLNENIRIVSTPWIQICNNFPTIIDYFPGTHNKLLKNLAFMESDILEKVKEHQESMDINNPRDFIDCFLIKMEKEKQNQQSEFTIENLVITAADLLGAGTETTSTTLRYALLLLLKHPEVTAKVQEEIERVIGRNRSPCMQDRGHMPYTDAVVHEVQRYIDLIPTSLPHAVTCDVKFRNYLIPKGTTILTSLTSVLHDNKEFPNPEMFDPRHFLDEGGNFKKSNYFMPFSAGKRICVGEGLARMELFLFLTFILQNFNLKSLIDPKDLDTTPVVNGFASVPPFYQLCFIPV
Sequence of Paired box protein Pax-8 (Q06710 whole entry): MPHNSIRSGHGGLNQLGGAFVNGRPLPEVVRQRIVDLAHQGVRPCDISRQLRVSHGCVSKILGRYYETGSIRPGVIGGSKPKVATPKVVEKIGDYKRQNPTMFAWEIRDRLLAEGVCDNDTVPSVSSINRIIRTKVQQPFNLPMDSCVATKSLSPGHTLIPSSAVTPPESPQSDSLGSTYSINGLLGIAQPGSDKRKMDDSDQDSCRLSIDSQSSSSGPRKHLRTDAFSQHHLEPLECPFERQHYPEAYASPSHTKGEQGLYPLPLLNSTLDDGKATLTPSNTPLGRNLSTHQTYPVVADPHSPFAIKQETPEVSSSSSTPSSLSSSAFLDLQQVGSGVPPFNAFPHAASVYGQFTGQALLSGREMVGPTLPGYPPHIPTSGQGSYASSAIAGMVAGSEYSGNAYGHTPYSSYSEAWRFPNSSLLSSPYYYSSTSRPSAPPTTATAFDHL

On to `Nc1ncc2c(n1)-c1ccccc1CC2`, for which the half-inhibitory concentration (IC50) in assay [1] was 1.53 µM (active).

As for `CC(C)Cn1c2c(c(O)c(C(=O)Nc3ncccc3O)c1=O)CCCC2`, the IC50 in [2] was 16.3 µM (active). The EC50 is 2.97 µM (active) in assay [3] and 3.34 µM (active) in the assay on Streptococcus.

As to `CN(C)CC(=O)N1C[C@@H]2N[C@H](C1)[C@H]2c1ccc(/C=C/c2ccccc2)cc1`, the half-maximal activity concentration (AC50) is 2.63 µM (active) in [4] and 11.4 µM (active) in assay [5].

Regarding `COC(=O)C1=C(C)N(Cc2ccc(C(F)(F)F)cc2)C(NCc2ccccc2C(F)(F)F)=NC1c1ccccc1` (stereo unspecified), the IC50 in assay [6] is > 96.6 µM (inactive).

As for `CN(C)CCC=C1c2ccccc2CCc2ccccc21` [AMITRIPTYLINE HYDROCHLORIDE], the IC50 in [7] is > 10 µM (inactive); in assay [8], 3 µM (active); in “cells”, > 33.3 µM (inactive); in [9] it was > 10 µM (inactive).

Regarding `O=[N+]([O-])c1ccccc1/C=C/C=N/n1c(S)nnc1-c1ccc(Cl)cc1`, in assay [2], the IC50 is > 20 µM (inactive).

As for `CCC(=O)Nc1cc(C)c(NC(=O)C23CC4CC(CC(C4)C2)C3)cn1`, at Protein Tat, the half-maximal inhibitory concentration (IC50) was > 100 µM (active).

As to `C[C@@H]1CCCCO[C@H](CN(C)C(=O)C2CCCCC2)[C@H](C)CN([C@@H](C)CO)C(=O)c2cc(NS(=O)(=O)c3ccc(Cl)cc3)ccc2O1`, the half-maximal activity concentration (AC50) on Paired box protein Pax-8 was 10.8 µM (active); in assay [10], 56.9 µM (active); in assay [11], 43.4 µM (active); in assay [12], 45.3 µM (active).

With `COc1ccc(NC(=O)C(c2ccc(C)cc2)N(C)C(=O)c2cnccn2)cc1` (stereo unspecified), on fMet-Leu-Phe receptor, the Ki is > 66.7 µM (inactive).

For the molecule `CC(=O)N1CCN(C(=O)c2cc(-c3ccc(Cl)s3)nc3ccccc23)CC1`, the half-inhibitory concentration (IC50) in assay [1] is 1.17 µM (active).

Take `COc1ccc(C2C(C(=O)c3ccccc3)=C(O)C(=O)N2CC(C)O)c(OC)c1` (stereo unspecified): the AC50 on Cytochrome P450 2C19 is 6.31 µM (inconclusive). Further, the Ki at fMet-Leu-Phe receptor was 38.6 µM (inactive).
